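Five compound concentrations were applied to cells in 96-well plates for 48 hours; endpoints were derived by simple linear interpolation of the resulting dose-response curve. TGI is the concentration that stops growth completely.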
Columns and labels:
Experiment in all cases: growth of human tumour cells (NCI), 48 h
[1] = tested on: 786-0 renal
[2] = tested on: A498 renal
[3] = tested on: A549 NSCLC
[4] = tested on: ACHN renal
[5] = tested on: BT-549 breast
[6] = tested on: CAKI-1 renal
[7] = tested on: CCRF-CEM leukemia
[8] = tested on: COLO 205 colon
[9] = tested on: DU-145 prostate
[10] = tested on: EKVX NSCLC
[11] = tested on: HCC-2998 colon
[12] = tested on: HCT-116 colon
[13] = tested on: HCT-15 colon
[14] = tested on: HOP-62 NSCLC
[15] = tested on: HOP-92 NSCLC
[16] = tested on: HS 578T breast
[17] = tested on: HT29 colon
[18] = tested on: K-562 leukemia
[19] = tested on: KM12 colon
[20] = tested on: LOX IMVI melanoma
[21] = tested on: M14 melanoma
[22] = tested on: MALME-3M melanoma
[23] = tested on: MCF7 breast
[24] = tested on: MDA-MB-231 breast
[25] = tested on: MDA-MB-435
[26] = tested on: MDA-N
[27] = tested on: MOLT-4 leukemia
[28] = tested on: NCI-H226 lung
[29] = tested on: NCI-H23 lung
[30] = tested on: NCI-H460 lung
[31] = tested on: NCI-H522 lung
[32] = tested on: NCI/ADR-RES ovarian
[33] = tested on: OVCAR-3 ovarian
[34] = tested on: OVCAR-4 ovarian
[35] = tested on: OVCAR-5 ovarian
[36] = tested on: OVCAR-8 ovarian
[37] = tested on: PC-3 prostate
[38] = tested on: RPMI-8226 leukemia
[39] = tested on: RXF 393 renal
[40] = tested on: SF-268 CNS
[41] = tested on: SF-295 CNS
[42] = tested on: SF-539 CNS
[43] = tested on: SK-MEL-28 melanoma
[44] = tested on: SK-MEL-5 melanoma
[45] = tested on: SK-OV-3 ovarian
[46] = tested on: SN12C renal
[47] = tested on: SNB-19 CNS
[48] = tested on: SNB-75 CNS
[49] = tested on: SR leukemia
[50] = tested on: SW-620 colon
[51] = tested on: T-47D breast
[52] = tested on: TK-10 renal
[53] = tested on: U251 CNS
[54] = tested on: UACC-257 melanoma
[55] = tested on: UACC-62 melanoma
[56] = tested on: UO-31 renal
[57] = tested on: HL-60(TB) leukemia
[58] = tested on: IGROV1 ovarian
[59] = tested on: SK-MEL-2 melanoma

CCOC(=O)c1c(N2CCCC2)[nH]c(=O)c(C(c2c(O)c(C(=O)OCC)c(N3CCCC3)[nH]c2=O)C(C)C)c1O
TGI [1]: > 100 µM
TGI [2]: > 100 µM
TGI [3]: > 100 µM
TGI [4]: > 100 µM
TGI [5]: > 100 µM
TGI [6]: > 100 µM
TGI [7]: > 100 µM
TGI [8]: > 100 µM
TGI [9]: > 100 µM
TGI [10]: > 100 µM
TGI [11]: > 100 µM
TGI [12]: > 100 µM
TGI [13]: > 100 µM
TGI [14]: > 100 µM
TGI [15]: > 100 µM
TGI [16]: > 100 µM
TGI [17]: > 100 µM
TGI [18]: > 100 µM
TGI [19]: > 100 µM
TGI [20]: > 100 µM
TGI [21]: > 100 µM
TGI [22]: > 100 µM
TGI [23]: > 100 µM
TGI [24]: 64.3 µM
TGI [25]: > 100 µM
TGI [26]: > 100 µM
TGI [27]: > 100 µM
TGI [28]: > 100 µM
TGI [29]: > 100 µM
TGI [30]: > 100 µM
TGI [31]: > 100 µM
TGI [32]: > 100 µM
TGI [33]: > 100 µM
TGI [34]: > 100 µM
TGI [35]: > 100 µM
TGI [36]: > 100 µM
TGI [37]: > 100 µM
TGI [38]: > 100 µM
TGI [39]: > 100 µM
TGI [40]: > 100 µM
TGI [41]: > 100 µM
TGI [42]: > 100 µM
TGI [43]: > 100 µM
TGI [44]: > 100 µM
TGI [45]: > 100 µM
TGI [46]: > 100 µM
TGI [47]: > 100 µM
TGI [48]: 96.5 µM
TGI [49]: > 100 µM
TGI [50]: > 100 µM
TGI [51]: > 100 µM
TGI [52]: > 100 µM
TGI [53]: > 100 µM
TGI [54]: > 100 µM
TGI [55]: > 100 µM
TGI [56]: > 100 µM

O=[N+]([O-])c1cc(C2(N3CCCCC3)CCCCC2)sc1Br
TGI [1]: 39.2 µM
TGI [2]: 16.1 µM
TGI [3]: 33.7 µM
TGI [4]: 11.5 µM
TGI [5]: 24.3 µM
TGI [6]: 15.6 µM
TGI [7]: 7.33 µM
TGI [8]: 17.7 µM
TGI [9]: 10.2 µM
TGI [10]: 24.6 µM
TGI [11]: 3.41 µM
TGI [12]: 35.5 µM
TGI [13]: 17.2 µM
TGI [57]: 5.24 µM
TGI [14]: 17.3 µM
TGI [15]: 21.7 µM
TGI [16]: > 58.5 µM
TGI [17]: 15.4 µM
TGI [58]: 25.1 µM
TGI [18]: 14.1 µM
TGI [19]: 20.2 µM
TGI [20]: 15.1 µM
TGI [21]: 21.9 µM
TGI [22]: 20 µM
TGI [23]: 8.6 µM
TGI [24]: 27.4 µM
TGI [25]: 17 µM
TGI [26]: 23.3 µM
TGI [27]: 8.12 µM
TGI [28]: 28.1 µM
TGI [29]: 26.5 µM
TGI [30]: 29.5 µM
TGI [31]: 6.78 µM
TGI [32]: 28.2 µM
TGI [33]: 7.4 µM
TGI [34]: 27.1 µM
TGI [35]: 38.2 µM
TGI [36]: 24 µM
TGI [37]: 13.1 µM
TGI [38]: 4.45 µM
TGI [39]: 13.2 µM
TGI [40]: 28.1 µM
TGI [41]: 30.1 µM
TGI [42]: 17.9 µM
TGI [59]: 21.4 µM
TGI [43]: 23.9 µM
TGI [44]: 18.7 µM
TGI [45]: 31.2 µM
TGI [46]: 21.8 µM
TGI [47]: 27.6 µM
TGI [49]: 10.7 µM
TGI [50]: 21.3 µM
TGI [51]: 4.64 µM
TGI [52]: 6.61 µM
TGI [53]: 19.1 µM
TGI [54]: 4.51 µM
TGI [55]: 23.5 µM
TGI [56]: 24.6 µM

From PubChem BioAssay (NCI)
